Reference: ChEMBL document CHEMBL1145750, “Synthesis and biological evaluation of 2'-methyl taxoids derived from baccatin III and 14beta-OH-baccatin III 1,14-carbonate” (J Med Chem, 2003)

Legend:
[1] = (§1) Potency differential in resistant to that of sensitive MCF7-R cell line; type: functional
[2] = Potency differential in resistant to that of sensitive A2780TAX cell line; type: functional
[3] = tested on: A2780; experiment: In vitro cytotoxicity against A2780TAX cell line; conditions: Homo sapiens
[4] = Potency differential in resistant to that of sensitive A2780ADR cell line; type: functional, A2780 ADR
[5] = tested on: MCF7; experiment: In vitro cytotoxicity against MCF-7 cell line; type: functional, cell-based; conditions: Homo sapiens
[6] = tested on: MCF7R; experiment: In vitro cytotoxicity against MCF7-R cell line; type: functional, cell-based; conditions: Homo sapiens
[7] = tested on: A2780; experiment: In vitro cytotoxicity against A2780CIS cell line; conditions: Homo sapiens
[8] = tested on: A2780; experiment: In vitro cytotoxicity against A2780ADR cell line; conditions: Homo sapiens
[9] = Potency differential in resistant to that of sensitive A2780CIS cell line; type: functional
[10] = tested on: A2780; experiment: In vitro cytotoxicity against A2780 cell line; conditions: Homo sapiens
[11] = tested on: MCF7R; experiment: as §1; type: functional, cell-based; conditions: Homo sapiens

Structure (SMILES)	Ratio [1]	Ratio [2]	IC50 [3]	Ratio [4]	IC50 [5]	IC50 [6]	IC50 [7]	IC50 [8]	Ratio [9]	IC50 [10]	Ratio [11]
CC(=O)O[C@H]1C(=O)[C@@]2(C)[C@H]([C@H](OC(=O)c3ccccc3)[C@]34OC(=O)O[C@H]3[C@H](OC(=O)[C@](C)(O)[C@@H](NC(=O)OC(C)(C)C)c3ccco3)C(C)=C1C4(C)C)[C@]1(OC(C)=O)CO[C@@H]1C[C@@H]2O	9.4	5	30.9 nM	4	1.7 nM	16 nM	2.5 nM	27.1 nM	0.4	5.9 nM	–
CC(=O)O[C@H]1C(=O)[C@@]2(C)[C@H]([C@H](OC(=O)c3ccccc3)[C@]34OC(=O)O[C@H]3[C@H](OC(=O)[C@](C)(O)[C@@H](NC(=O)OC(C)(C)C)c3ccccc3)C(C)=C1C4(C)C)[C@]1(OC(C)=O)CO[C@@H]1C[C@@H]2O	–	118	299 nM	21	–	–	1.7 nM	52.9 nM	0.7	2.5 nM	–
CC(=O)O[C@H]1C(=O)[C@@]2(C)[C@H]([C@H](OC(=O)c3ccccc3)[C@]3(O)C[C@H](OC(=O)[C@](C)(O)[C@@H](NC(=O)c4ccccc4)c4ccco4)C(C)=C1C3(C)C)[C@]1(OC(C)=O)CO[C@@H]1C[C@@H]2O	–	135	420 nM	20	–	–	2.9 nM	61.4 nM	0.9	3.1 nM	–
CC(=O)O[C@H]1C(=O)[C@@]2(C)[C@H]([C@H](OC(=O)c3ccccc3)[C@]3(O)C[C@H](OC(=O)[C@](C)(O)[C@@H](NC(=O)OC(C)(C)C)c4ccco4)C(C)=C1C3(C)C)[C@]1(OC(C)=O)CO[C@@H]1C[C@@H]2O	–	107	312 nM	14	–	–	3.3 nM	41.3 nM	1.1	2.9 nM	–
CC(=O)O[C@H]1C(=O)[C@@]2(C)[C@H]([C@H](OC(=O)c3ccccc3)[C@]34OC(=O)O[C@H]3[C@H](OC(=O)[C@](C)(O)[C@@H](NC(=O)OC(C)(C)C)C(F)(F)F)C(C)=C1C4(C)C)[C@]1(OC(C)=O)CO[C@@H]1C[C@@H]2O	–	61	285 nM	17	–	–	2.8 nM	79.3 nM	0.6	4.6 nM	–
CC(=O)O[C@H]1C(=O)[C@@]2(C)[C@H]([C@H](OC(=O)c3ccccc3)[C@]34OC(=O)O[C@H]3[C@H](OC(=O)[C@H](O)[C@H](CC(C)C)NC(=O)OC(C)(C)C)C(C)=C1C4(C)C)[C@]1(OC(C)=O)CO[C@@H]1C[C@@H]2O [ORTATAXEL]	–	12	56 nM	13	1.1 nM	36 nM	3.6 nM	63 nM	0.7	4.8 nM	33
